The target of the experiment is T1, sGC α1/β1 heterodimer stably expressed in CHO-K1 cells (CHO-K1/sGC) (Homo sapiens, UniProt Q02108+Q02153).
T1 construct: expressed in transfected cells
T1 sequence (Q02108 1-690): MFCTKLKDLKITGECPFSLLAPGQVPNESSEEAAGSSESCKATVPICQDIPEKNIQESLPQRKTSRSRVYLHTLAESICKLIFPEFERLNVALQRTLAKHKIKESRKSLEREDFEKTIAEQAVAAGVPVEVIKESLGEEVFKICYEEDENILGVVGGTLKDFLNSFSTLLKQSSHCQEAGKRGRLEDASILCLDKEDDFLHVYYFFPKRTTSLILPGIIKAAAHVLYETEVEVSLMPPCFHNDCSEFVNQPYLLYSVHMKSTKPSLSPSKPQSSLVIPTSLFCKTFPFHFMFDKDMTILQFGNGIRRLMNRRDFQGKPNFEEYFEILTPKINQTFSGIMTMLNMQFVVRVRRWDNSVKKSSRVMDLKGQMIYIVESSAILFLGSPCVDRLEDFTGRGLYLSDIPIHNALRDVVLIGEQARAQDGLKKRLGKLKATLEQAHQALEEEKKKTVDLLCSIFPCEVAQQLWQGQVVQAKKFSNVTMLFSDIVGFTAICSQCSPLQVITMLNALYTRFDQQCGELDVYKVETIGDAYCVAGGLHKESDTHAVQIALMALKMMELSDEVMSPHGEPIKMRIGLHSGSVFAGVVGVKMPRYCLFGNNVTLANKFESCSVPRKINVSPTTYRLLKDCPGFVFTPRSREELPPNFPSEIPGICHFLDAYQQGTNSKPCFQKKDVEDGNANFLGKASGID
T1 sequence (Q02153 1-619): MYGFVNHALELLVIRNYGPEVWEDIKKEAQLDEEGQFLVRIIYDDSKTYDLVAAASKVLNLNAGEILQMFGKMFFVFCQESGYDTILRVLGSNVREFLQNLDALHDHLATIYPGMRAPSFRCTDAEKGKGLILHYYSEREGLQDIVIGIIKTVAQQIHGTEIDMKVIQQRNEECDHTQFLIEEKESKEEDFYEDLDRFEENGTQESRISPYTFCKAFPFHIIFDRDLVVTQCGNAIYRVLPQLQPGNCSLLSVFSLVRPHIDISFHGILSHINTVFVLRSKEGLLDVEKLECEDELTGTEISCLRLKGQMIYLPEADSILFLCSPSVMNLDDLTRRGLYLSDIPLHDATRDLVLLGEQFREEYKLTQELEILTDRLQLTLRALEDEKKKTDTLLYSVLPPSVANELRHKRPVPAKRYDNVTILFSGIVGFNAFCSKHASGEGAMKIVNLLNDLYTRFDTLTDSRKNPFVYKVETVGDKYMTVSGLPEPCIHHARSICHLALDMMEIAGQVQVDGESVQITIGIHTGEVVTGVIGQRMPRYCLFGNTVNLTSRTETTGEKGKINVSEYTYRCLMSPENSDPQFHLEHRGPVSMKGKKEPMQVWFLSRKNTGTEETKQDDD
Put plainly: Cell-based sGC Functional Assay (CASA Assay). The note with it: for Emax: CHO-K1, activation as percentage of maximum cGMP production of Compound A (set to 100%), read-out: % Act.; for pEC50: inflection point of cGMP generation in CHO-K1/sGC cells, 4P fit, 1 hr at 37° C., read-out: IP. The gist of the method:
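CHO-K1 cells stably expressing human sGC α1/β1 were incubated with compound for 1 h at 37 °C in buffer with 0.5 mM IBMX and 2.5% DMSO, with or without 1 μM DETA-NO. Intracellular cGMP was read by HTRF and expressed as percentage of maximal activation by reference activator Compound A. Values came from a 4-parameter fit.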

pEC50: −log10 of the molar value.

`CCn1ncc2c(-c3nc(N)c4c(n3)NC(=O)C4(c3nnc(C4CC4)o3)C3CC3)nc(CCC(F)(F)C(F)(F)F)nc21` (centres unmarked) [Example 45, 4-Amino-5-cyclopropyl-5-(5-cyclopropyl-1,3,4-oxadiazol-2-yl)-2-(1-ethyl-6-(3,3,4,4,4-pentafluorobutyl)-1H-pyrazolo[3,4-d]pyrimidin-4-yl)-5,7-dihydro-6H-pyrrolo[2,3-d]pyrimidin-6-one]: the Emax amounted to 101% and the pEC50 is 6.13.

For the compound `[2H]C([2H])([2H])n1ncc2c(-c3nc(N)c4c(n3)NC(=O)C4(c3nnc(C4CCC4)o3)C3CC3)nc(CCC(F)(F)C(F)(F)F)nc21` (centres unmarked) [Example 46, 4-Amino-5-(5-cyclobutyl-1,3,4-oxadiazol-2-yl)-5-cyclopropyl-2-(1-(methyl-d3)-6-(3,3,4,4,4-pentafluorobutyl)-1H-pyrazolo[3,4-d]pyrimidin-4-yl)-5,7-dihydro-6H-pyrrolo[2,3-d]pyrimidin-6-one], the Emax turned out to be 97% and the pEC50 was 6.59.

Take `[2H]C([2H])([2H])n1ncc2c(-c3nc(N)c4c(n3)NC(=O)C4(c3nnc(C4CC4)o3)C3CC3)nc(CCC(F)(F)F)nc21` (centres unmarked) [Example 47, 4-Amino-5-cyclopropyl-5-(5-cyclopropyl-1,3,4-oxadiazol-2-yl)-2-(1-(methyl-d3)-6-(3,3,3-trifluoropropyl)-1H-pyrazolo[3,4-d]pyrimidin-4-yl)-5,7-dihydro-6H-pyrrolo[2,3-d]pyrimidin-6-one]: the Emax stood at 108% and the pEC50 was 5.68.

With `Cn1ncc2c(-c3nc(N)c4c(n3)NC(=O)C4(c3nnc(C4(C)CC4)o3)C3CC3)nc(CCC(F)(F)C(F)(F)F)nc21` (centres unmarked) [Example 48, 4-Amino-5-cyclopropyl-2-(1-methyl-6-(3,3,4,4,4-pentafluorobutyl)-1H-pyrazolo[3,4-d]pyrimidin-4-yl)-5-(5-(1-methylcyclopropyl)-1,3,4-oxadiazol-2-yl)-5,7-dihydro-6H-pyrrolo[2,3-d]pyrimidin-6-one], the Emax was 112% and the pEC50 was 6.40.

For the compound `CC(C)c1nnc(C2(C3CC3)C(=O)Nc3nc(-c4nc(CCC(F)(F)C(F)(F)F)nc5c4cnn5C)nc(N)c32)o1` (centres unmarked) [Example 49, 4-Amino-5-cyclopropyl-5-(5-isopropyl-1,3,4-oxadiazol-2-yl)-2-(1-methyl-6-(3,3,4,4,4-pentafluorobutyl)-1H-pyrazolo[3,4-d]pyrimidin-4-yl)-5,7-dihydro-6H-pyrrolo[2,3-d]pyrimidin-6-one], the Emax was found to be 113% and the pEC50 is 6.83.

`CC(C)c1nnc(C2(C)C(=O)Nc3nc(-c4nc(CCC(F)(F)C(F)(F)F)nc5c4cnn5C)nc(N)c32)o1` (centres unmarked) [Example 50, 4-Amino-5-(5-isopropyl-1,3,4-oxadiazol-2-yl)-5-methyl-2-(1-methyl-6-(3,3,4,4,4-pentafluorobutyl)-1H-pyrazolo[3,4-d]pyrimidin-4-yl)-5,7-dihydro-6H-pyrrolo[2,3-d]pyrimidin-6-one]: the Emax amounted to 176% and the pEC50 was 7.08.

On to `Cn1ncc2c(-c3nc(N)c4c(n3)NC(=O)C4(c3nnc(C4CC4)o3)C3CC3)nc(CC3CC(F)(F)C3)nc21` (centres unmarked) [Example 51, 4-Amino-5-cyclopropyl-5-(5-cyclopropyl-1,3,4-oxadiazol-2-yl)-2-(6-((3,3-difluorocyclobutyl)methyl)-1-methyl-1H-pyrazolo[3,4-d]pyrimidin-4-yl)-5,7-dihydro-6H-pyrrolo[2,3-d]pyrimidin-6-one], for which the Emax came out at 154% and the pEC50 was 6.92.

`CCC1(c2nnc(C3CC3)o2)C(=O)Nc2nc(-c3nc(CCC(F)(F)C(F)(F)F)nc4c3cnn4C)nc(N)c21` (centres unmarked) [Example 53, 4-Amino-5-(5-cyclopropyl-1,3,4-oxadiazol-2-yl)-5-ethyl-2-(1-methyl-6-(3,3,4,4,4-pentafluorobutyl)-1H-pyrazolo[3,4-d]pyrimidin-4-yl)-5,7-dihydro-6H-pyrrolo[2,3-d]pyrimidin-6-one]: the Emax stood at 165% and the pEC50 was 6.55.

With `Cn1ncc2c(-c3nc(N)c4c(n3)NC(=O)C4(C)c3cn(C4CC4)nn3)nc(CCC(F)(F)C(F)(F)F)nc21` (centres unmarked) [Example 59, 4-Amino-5-(1-cyclopropyl-1H-1,2,3-triazol-4-yl)-5-methyl-2-(1-methyl-6-(3,3,4,4,4-pentafluorobutyl)-1H-pyrazolo[3,4-d]pyrimidin-4-yl)-5,7-dihydro-6H-pyrrolo[2,3-d]pyrimidin-6-one], the Emax was 117% and the pEC50 was 7.54.

Take `CC(C)n1ncc(C2(C)C(=O)Nc3nc(-c4nc(CCC(F)(F)C(F)(F)F)nc5c4cnn5C)nc(N)c32)n1` (centres unmarked) [Example 61, 4-Amino-5-(2-isopropyl-2H-1,2,3-triazol-4-yl)-5-methyl-2-(1-methyl-6-(3,3,4,4,4-pentafluorobutyl)-1H-pyrazolo[3,4-d]pyrimidin-4-yl)-5,7-dihydro-6H-pyrrolo[2,3-d]pyrimidin-6-one]: the Emax came out at 110% and the pEC50 was 6.57.

With `[2H]C([2H])([2H])n1ncc2c(-c3nc(N)c4c(n3)NC(=O)C4(C)c3cn(CC)nn3)nc(CCC(F)(F)C(F)(F)F)nc21` (centres unmarked) [Example 64, 4-Amino-5-(1-ethyl-1H-1,2,3-triazol-4-yl)-5-methyl-2-(1-(methyl-d3)-6-(3,3,4,4,4-pentafluorobutyl)-1H-pyrazolo[3,4-d]pyrimidin-4-yl)-5,7-dihydro-6H-pyrrolo[2,3-d]pyrimidin-6-one], the Emax was determined as 120% and the pEC50 is 6.94.

Regarding `Cn1ncc2c(-c3nc(N)c4c(n3)NC(=O)C4(C)c3cn(CC4CC4)nn3)nc(CCC(F)(F)C(F)(F)F)nc21` (centres unmarked) [Example 65, 4-Amino-5-(1-(cyclopropylmethyl)-1H-1,2,3-triazol-4-yl)-5-methyl-2-(1-methyl-6-(3,3,4,4,4-pentafluorobutyl)-1H-pyrazolo[3,4-d]pyrimidin-4-yl)-5,7-dihydro-6H-pyrrolo[2,3-d]pyrimidin-6-one], the Emax was 111% and the pEC50 was 6.77.

For `CC(C)Cn1cc(C2(C)C(=O)Nc3nc(-c4nc(CCC(F)(F)C(F)(F)F)nc5c4cnn5C)nc(N)c32)nn1` (centres unmarked) [Example 70, 34-Amino-5-(1-isobutyl-1H-1,2,3-triazol-4-yl)-5-methyl-2-(1-methyl-6-(3,3,4,4,4-pentafluorobutyl)-1H-pyrazolo[3,4-d]pyrimidin-4-yl)-5,7-dihydro-6H-pyrrolo[2,3-d]pyrimidin-6-one], the Emax amounted to 132% and the pEC50 was 6.53.

`CCn1ncc(C2(C)C(=O)Nc3nc(-c4nc(CCC(F)(F)C(F)(F)F)nc5c4cnn5C)nc(N)c32)n1` (centres unmarked) [Example 79, 4-Amino-5-(2-ethyl-2H-1,2,3-triazol-4-yl)-5-methyl-2-(1-methyl-6-(3,3,4,4,4-pentafluorobutyl)-1H-pyrazolo[3,4-d]pyrimidin-4-yl)-5,7-dihydro-6H-pyrrolo[2,3-d]pyrimidin-6-one]: the Emax turned out to be 169% and the pEC50 was 6.31.

Consider `Cn1ncc(C2(C)C(=O)Nc3nc(-c4nc(CCC(F)(F)C(F)(F)F)nc5c4cnn5C)nc(N)c32)n1` (centres unmarked) [Example 80, 4-Amino-5-methyl-5-(2-methyl-2H-1,2,3-triazol-4-yl)-2-(1-methyl-6-(3,3,4,4,4-pentafluorobutyl)-1H-pyrazolo[3,4-d]pyrimidin-4-yl)-5,7-dihydro-6H-pyrrolo[2,3-d]pyrimidin-6-one], for which the Emax is 90% and the pEC50 was 6.39.

`CC(C)n1cc(C2(C)C(=O)Nc3nc(-c4nc(CCC(F)(F)C(F)(F)F)nc5c4cnn5C)ncc32)nn1` (centres unmarked) [Example 81]: the Emax was found to be 102% and the pEC50 was 6.21.

The record behind these values is US9611278B2 (Merck Sharp & Dohme Corp., priority 2013, dated 2017).
